We go through 1 molecule from US10858684B2, “Mutant microorganisms resistant to lactose killing” (Inbiose N.V., priority 2014, dated 2020).

Read-outs that look alike come from different tables or passages of the source.

The test system of this experiment is E. coli lactose permease expression cassette mutant strains. The experiment can be described thus: Chloramphenicol resistance / MIC of strains with lactose permease translationally coupled to chloramphenicol resistance gene. The class given is cell-based, Escherichia coli. The following applies: for MIC: Escherichia coli. The source says: Two strains were constructed in which lactose permease was knockout out from the genome. In both strains a pSC101 plasmid containing a kanamycin resistance gene was transformed, with the difference that one of the plasmids contained a constitutively expressed lactose permease as described in Example 1 and 2, resulting in a reference strain MG1655ΔlacY pSC101_kan and the lacY_cat translational coupled strain MG1655ΔlacY pSC101_kan_lacYsynthetic_cat as described in Example 4 and FIG. 5. Both strains were grown in a minimal medium as described above at different chloramphenicol concentrations (between 0 and 30 mg/l).
This method is however limited by the expression of the beta galactosidase gene which becomes the rate limiting step for growth. Therefore, the expression of the lactose permease gene was measured via the above described translational coupling system described above. The minimal inhibition concentration (MIC) for chloramphenicol is indicative for the expression of the lactose permease gene and this was determined for each of the cassettes. The lowest MIC that still resulted into the same growth rate compared to the wild type was used as an indicator for the expression of the wild type lactose permease expression.

Regarding `O=C(N[C@H](CO)[C@H](O)c1ccc([N+](=O)[O-])cc1)C(Cl)Cl` [chloramphenicol], the MIC was about 20 µg/mL (read-out: minimal inhibition concentration (MIC), cassettes with the lowest MIC that have the same growth rate as the wild type strain); 15 to 20 µg/mL (read-out: minimal inhibition concentration (MIC), mutant strains with a slightly lower growth rate); 20 to 80 µg/mL (read-out: minimal inhibition concentration (MIC), mutant strains with equal or higher growth rate). Moreover, the “growth inhibition of reference strain MG1655ΔlacY pSC101_kan versus lacY_cat coupled strain” value (chloramphenicol 0 to 30 mg/l, minimal medium, 48 and 92 hours) is listed as “inhibited at a lower chloramphenicol concentration than the mutant lacY_cat translational coupled strain”.
